{"source": "patent US20230041563A1", "about": "“N-(1,3,4-OXADIAZOL-2-YL)ARYLCARBOXAMIDES OR SALTS THEREOF, PREPARATION METHODS, HERBICIDAL COMPOSITIONS AND USES THEREOF” (priority 2018, published 2023)", "test_system": "weeds", "test": "Actual control effects and combined effects of mixtures of active ingredients (i) and (ii), stem-leaf treatment, Gowing method", "format": "in vivo", "settings": "20 days"}
{"compound": "CCSc1c(C(F)(F)F)ccc(C(=O)Nc2nnc(C)o2)c1F", "note": "[Compound 1-4]", "values": [{"measurement": "Control effect of (i) alone at corresponding dose", "setting": "Cyperus difformis, (i) 0.3 g a.i./mu", "result": 4.1, "unit": "%"}, {"measurement": "Control effect of (i) alone at corresponding dose", "setting": "Cyperus difformis, (i) 1 g a.i./mu", "result": 6.3, "unit": "%"}, {"measurement": "Control effect of (i) alone at corresponding dose", "setting": "Cyperus difformis, (i) 1.5 g a.i./mu", "result": 9.2, "unit": "%"}, {"measurement": "Control effect of (i) alone at corresponding dose", "setting": "Cyperus difformis, (i) 3 g a.i./mu", "result": 15.2, "unit": "%"}, {"measurement": "Control effect of (i) alone at corresponding dose", "setting": "Cyperus difformis, (i) 6 g a.i./mu", "result": 25.6, "unit": "%"}, {"measurement": "Control effect of (i) alone at corresponding dose", "setting": "Cyperus difformis, (i) 9 g a.i./mu", "result": 32.1, "unit": "%"}, {"measurement": "Control effect of (i) alone at corresponding dose", "setting": "Echinochloa phyllopogon, (i) 0.6 g a.i./mu", "result": 20.5, "unit": "%"}, {"measurement": "Control effect of (i) alone at corresponding dose", "setting": "Echinochloa phyllopogon, (i) 0.7 g a.i./mu", "result": 25.1, "unit": "%"}, {"measurement": "Control effect of (i) alone at corresponding dose", "setting": "Echinochloa phyllopogon, (i) 0.75 g a.i./mu", "result": 30.3, "unit": "%"}, {"measurement": "Control effect of (i) alone at corresponding dose", "setting": "Echinochloa phyllopogon, (i) 1 g a.i./mu", "result": 36.6, "unit": "%"}, {"measurement": "Control effect of (i) alone at corresponding dose", "setting": "Echinochloa phyllopogon, (i) 1.5 g a.i./mu", "result": 41.5, "unit": "%"}, {"measurement": "Control effect of (i) alone at corresponding dose", "setting": "Echinochloa phyllopogon, (i) 1.6 g a.i./mu", "result": 45.3, "unit": "%"}, {"measurement": "Control effect of (i) alone at corresponding dose", "setting": "Echinochloa phyllopogon, (i) 3 g a.i./mu", "result": 60.2, "unit": "%"}, {"measurement": "Control effect of (i) alone at corresponding dose", "setting": "Leptochloa chinensis, (i) 3 g a.i./mu", "result": 18.6, "unit": "%"}, {"measurement": "Control effect of (i) alone at corresponding dose", "setting": "Leptochloa chinensis, (i) 15 g a.i./mu", "result": 45.6, "unit": "%"}, {"measurement": "Control effect of (i) alone at corresponding dose", "setting": "Monochoria vaginalis, (i) 0.8 g a.i./mu", "result": 5.8, "unit": "%"}, {"measurement": "Control effect of (i) alone at corresponding dose", "setting": "Monochoria vaginalis, (i) 1 g a.i./mu", "result": 6.2, "unit": "%"}, {"measurement": "Control effect of (i) alone at corresponding dose", "setting": "Monochoria vaginalis, (i) 1.8 g a.i./mu", "result": 8.6, "unit": "%"}, {"measurement": "Control effect of (i) alone at corresponding dose", "setting": "Monochoria vaginalis, (i) 2.4 g a.i./mu", "result": 10.2, "unit": "%"}, {"measurement": "Control effect of (i) alone at corresponding dose", "setting": "Monochoria vaginalis, (i) 3 g a.i./mu", "result": 12.7, "unit": "%"}, {"measurement": "Control effect of (i) alone at corresponding dose", "setting": "Monochoria vaginalis, (i) 3.5 g a.i./mu", "result": 13.3, "unit": "%"}, {"measurement": "Control effect of (i) alone at corresponding dose", "setting": "Monochoria vaginalis, (i) 5 g a.i./mu", "result": 19.6, "unit": "%"}, {"measurement": "Control effect of (i) alone at corresponding dose", "setting": "Monochoria vaginalis, (i) 6 g a.i./mu", "result": 28.6, "unit": "%"}, {"measurement": "Control effect of (i) alone at corresponding dose", "setting": "Monochoria vaginalis, (i) 10 g a.i./mu", "result": 31.7, "unit": "%"}, {"measurement": "Control effect of (i) alone at corresponding dose", "setting": "Monochoria vaginalis, (i) 15 g a.i./mu", "result": 40.5, "unit": "%"}, {"measurement": "Control effect of (i) alone at corresponding dose", "setting": "Sagittaria trifolia L., (i) 0.75 g a.i./mu", "result": 16.3, "unit": "%"}, {"measurement": "Control effect of (i) alone at corresponding dose", "setting": "Sagittaria trifolia L., (i) 3 g a.i./mu", "result": 60.3, "unit": "%"}]}
